# In patent US10370436B2, “Anti-pseudomonas Psl binding molecules and uses thereof” (priority 2011, dated 2019):
# What was measured:
# [1] = system: non-mucoid P. aeruginosa strains from clinically relevant O-antigen serotypes; assay: OPK assay, non-mucoid clinical isolates; format: cell-based, Pseudomonas aeruginosa; conditions: FIG. 2C
# Protocol: (§1) This example describes the evaluation of prioritized human IgG1 antibodies to promote OPK of P. aeruginosa. […] OPK assays were performed as described in (DiGiandomenico, A., et al., Infect Immun 72, 7012-7021 (2004)), with modifications. Briefly, assays were performed in 96-well plates using 0.025 ml of each OPK component; P. aeruginosa strains; diluted baby rabbit serum; differentiated HL-60 cells; and monoclonal antibody. In some OPK assays, luminescent P. aeruginosa strains, which were constructed as described (Choi, K. H., et al., Nat Methods 2, 443-448 (2005)), were used. Luminescent OPK assays were performed as described above but with determination of relative luciferase units (RLUs) using a Perkin Elmer ENVISION Multilabel plate reader (Perkin Elmer).
# (§2) The ability of Cam-003 to mediate OPK activity against representative non-mucoid strains from clinically relevant O-antigen serotypes and against mucoid P. aeruginosa strains which were derived from cystic fibrosis patients was evaluated.
# [2] = system: mucoid P. aeruginosa strains derived from cystic fibrosis patients; assay: OPK assay, mucoid isolates; format: cell-based, Pseudomonas aeruginosa; conditions: FIG. 2D
# Protocol: as §1, §2
# [3] = system: P. aeruginosa strains PAO1, 33356, 6294, 6077; assay: P. aeruginosa acute pneumonia model, survival; format: in vivo, BALB/c mice
# Protocol: FIG. 6 (A-G): Survival rates for animals treated with anti-Psl monoclonal antibodies Cam-003 or WapR-004 in a P. aeruginosa acute pneumonia model. (A-D) Animals were treated with Cam-003 at 45, 15, and 5 mg/kg and R347 at 45 mg/kg or PBS 24 hours prior to intranasal infection with (A) PAO1 (1.6×10^7 CFU), (B) 33356 (3×10^7 CFU), (C) 6294 (7×10^6 CFU), (D) 6077 (1×10^6 CFU). (E-F) Animals were treated with WapR-004 at 5 and 1 mg/kg as indicated followed by infection with 6077 at (E) (8×10^5 CFU), or (F) (6×10^5 CFU). Animals were carefully monitored for survival up to 72 hours (A-D) or for 120 hours (E-F). (G) Animals were treated with Cam-003 at 15 mg/kg or 5 mg/kg, or R347 at 15 mg/kg 24 hours prior to intranasal infection with PAO1 (4.4×10^7 CFU), and Cam-003 at 15 mg/kg 24 hours prior to intranasal infection with PAO1ΔpslA (3×10^7 CFU). In all experiments, PBS and R347 served as negative controls. Results are represented as Kaplan-Meier survival curves; differences in survival were calculated by the Log-rank test for Cam-003 vs. R347. (A) Cam-003 (45 mg/kg—P<0.0001; 15 mg/kg—P=0.0003; 5 mg/kg—P=0.0033). (B) Cam-003 (45 mg/kg—P=0.0012; 15 mg/kg—P=0.0012; 5 mg/kg—P=0.0373). (C) Cam-003 (45 mg/kg—P=0.0007; 15 mg/kg—P=0.0019; 5 mg/kg—P=0.0212). (D) Cam-003 (45 mg/kg—P<0.0001; 15 mg/kg—P<0.0001; 5 mg/kg—P=0.0001). Results are representative of at least two independent experiments. (E) [Cam-003 (5 mg/kg) vs. R347 (5 mg/kg): P=0.02; Cam-003 (1 mg/kg) vs. R347 (5 mg/kg): P=0.4848; WapR-004 (5 mg/kg) vs. R347 (5 mg/kg): P<0.0001; WapR-004 (1 mg/kg) vs. R347 (5 mg/kg): P=0.0886; WapR-004 (5 mg/kg) vs. Cam-003 (5 mg/kg): P=0.0017; WapR-004 (1 mg/kg) vs. Cam-003 (1 mg/kg): P=0.2468; R347 (5 mg/kg) vs. PBS: P=0.6676] (F) [Cam-003 (5 mg/kg) vs. R347 (5 mg/kg): P=0.0004; Cam-003 (1 mg/kg) vs. R347 (5 mg/kg): P<0.0001; WapR-004 (5 mg/kg) vs. R347 (5 mg/kg): P<0.0001; WapR-004 (1 mg/kg) vs. R347 (5 mg/kg): P<0.0001; WapR-004 (5 mg/kg) vs. Cam-003 (5 mg/kg): P=0.0002; WapR-004 (1 mg/kg) vs. Cam-003 (1 mg/kg): P=0.2628; R347 (5 mg/kg) vs. PBS: P=0.6676. (G) Cam-003 (15 mg/kg—P=0.0028; 5 mg/kg—P=0.0028)]. Results are representative of five independent experiments.
# Antibodies or PBS were administered 24 hours before infection in each model. P. aeruginosa acute pneumonia, keratitis, and thermal injury infection models were performed as described (DiGiandomenico, A., et al., Proc Natl Acad Sci USA 104, 4624-4629 (2007)), with modifications. In the acute pneumonia model, BALB/c mice (The Jackson Laboratory) were infected with P. aeruginosa strains suspended in a 0.05 ml inoculum. In the thermal injury model, CF-1 mice (Charles River) received a 10% total body surface area burn with a metal brand heated to 92° C. for 10 seconds. Animals were infected subcutaneously with P. aeruginosa strain 6077 at the indicated dose. For organ burden experiments, acute pneumonia was induced in mice followed by harvesting of lungs, spleens, and kidneys 24 hours post-infection for determination of CFU.
substance,measurement,setting,value
"Cam-003: human IgG1 anti-Psl monoclonal antibody, VH SEQ ID NO: 1 and VL SEQ ID NO: 2",OPK activity,[1],mediated potent OPK of all non-mucoid clinical isolates tested
same,OPK activity,[2],mediated potent killing of all mucoid P. aeruginosa isolates that were tested
same,survival,"[3]; Psl mutant strain PAO1ΔpslA, FIG. 6G",Increased survival was not observed
same,activity versus Cam-003-TM,"[3]; larger infectious inoculum of 6077 (1.07×10^6), titrated antibody dose, FIG. 9E",superior to Cam-003-TM
same,survival,"[3]; strain 6077, 5 mg/kg, FIG. 6D",90%
same,survival,"[3]; strain 33356, 5 mg/kg, FIG. 6B",80%
same,survival,"[3]; strain PAO1, at 120 hours, FIG. 6G",100%
same,protection from challenge,"[3]; strains 33356 and 6077, 45 and 15 mg/kg, FIGS. 6B, 6D",complete protection
same,survival,"[3]; strains PAO1 and 6294, 45, 15, 5 mg/kg 24 hours prior to intranasal infection, FIGS. 6A, 6C",significant concentration-dependent survival
